Here are results for 4 compounds from US12077503B2, “Substituted cyclic amides and their use as herbicides” (FMC CORPORATION, priority 2015, dated 2024).

Holding throughout (format): in vivo
For experiment [1], the system named is barnyardgrass (Echinochloa crus-galli). The experiment in a line: Test B flooded paddy test. The settings on record: Echinochloa crus-galli, 250 g ai/ha, Flood; 0 to 100 scale where 0 is no effect and 100 is complete control; read-out: Barnyardgrass plant response rating. A digest of the protocol: (§1)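 Rating scale 0–100 (visual, vs untreated controls) after a 13–15 d greenhouse period; application to the flood layer, 3 cm above soil and maintained; plants at 2-leaf stage when treated.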

In experiment [2] the test system is ducksalad (Heteranthera limosa). The experiment in a line: Test B flooded paddy test. The settings on record: Heteranthera limosa, 250 g ai/ha, Flood; 0 to 100 scale where 0 is no effect and 100 is complete control; read-out: Ducksalad plant response rating. The method in brief:
as §1

For experiment [3], the system named is sedge, umbrella (small-flower umbrella sedge, Cyperus difformis). The experiment can be described thus: Test B flooded paddy test. The settings on record: Cyperus difformis, 250 g ai/ha, Flood; 0 to 100 scale where 0 is no effect and 100 is complete control; read-out: Sedge, Umbrella plant response rating. A digest of the protocol: as §1
The next experiment deals with rice (Oryra sativa). The experiment can be described thus: Test B flooded paddy test. The settings on record: Oryza sativa, 250 g ai/ha, Flood; 0 to 100 scale where 0 is no effect and 100 is complete control; read-out: Rice plant response rating. The method in brief: as §1
For experiment [4], the system named is pigweed (Amaranthus retroflexus). The experiment can be described thus: Test A preemergence. The settings on record: Amaranthus retroflexus, pre-emergence, 240 h, preemergence, 0 to 100 scale where 0 is no effect and 100 is complete control, read-out: Pigweed plant response rating; for pest or weed control at 125 g/ha: 125 g ai/ha; for pest or weed control at 500 g/ha: 500 g ai/ha.

Experiment [5] relates to barnyardgrass (Echinochloa crus-galli). The experiment can be described thus: Test A postemergence. The settings on record: Echinochloa crus-galli, post-emergence, 240 h, postemergence; for pest or weed control at 125 g/ha: 125 g ai/ha, visual injury vs untreated controls after approx. 10 d, 0 = no effect, 100 = complete control, read-out: Barnyardgrass plant response rating (0 to 100 scale); for pest or weed control at 500 g/ha: 500 g ai/ha, 0 to 100 scale, 0 is no effect, 100 is complete control, read-out: Barnyardgrass plant response rating. A digest of the protocol: (§2)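 Treatment is preemergence as a directed soil spray after planting, or postemergence at the one- to two-leaf stage, with test chemical in a non-phytotoxic solvent mixture plus surfactant. Plants stay in the greenhouse about 10 d before visual injury scoring on a 0 to 100 scale versus untreated controls.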

The subject of experiment [6] is blackgrass (Alopecurus myosuroides). The experiment can be described thus: Test A postemergence. The settings on record: Alopecurus myosuroides, post-emergence, 240 h, postemergence; for pest or weed control at 125 g/ha: 125 g ai/ha, visual injury vs untreated controls after approx. 10 d, 0 = no effect, 100 = complete control, read-out: Blackgrass plant response rating (0 to 100 scale); for pest or weed control at 500 g/ha: 500 g ai/ha, 0 to 100 scale, 0 is no effect, 100 is complete control, read-out: Blackgrass plant response rating. A digest of the protocol:
as §2

For experiment [7], the system named is ryegrass, Italian (Italian ryegrass, Lolium multiflorum). The experiment in a line: Test A postemergence. The settings on record: Lolium multiflorum, post-emergence, 240 h, postemergence; for pest or weed control at 125 g/ha: 125 g ai/ha, visual injury vs untreated controls after approx. 10 d, 0 = no effect, 100 = complete control, read-out: Ryegrass, Italian plant response rating (0 to 100 scale); for pest or weed control at 500 g/ha: 500 g ai/ha, 0 to 100 scale, 0 is no effect, 100 is complete control, read-out: Ryegrass, Italian plant response rating. The method in brief:
as §2

The test system of the next experiment is corn (Zea mays). The experiment in a line: Test A postemergence. The settings on record: Zea mays, post-emergence, 240 h, postemergence; for plant injury at 125 g/ha: 125 g ai/ha, visual injury vs untreated controls after approx. 10 d, 0 = no effect, 100 = complete control, read-out: Corn plant response rating (0 to 100 scale); for plant injury at 500 g/ha: 500 g ai/ha, 0 to 100 scale, 0 is no effect, 100 is complete control, read-out: Corn plant response rating. The method in brief: as §2

Experiment [8] concerns ragweed (common ragweed, Ambrosia elatior). The experiment in a line: Test A postemergence. The settings on record: Ambrosia artemisiifolia, post-emergence, 240 h, postemergence; for pest or weed control at 125 g/ha: 125 g ai/ha, visual injury vs untreated controls after approx. 10 d, 0 = no effect, 100 = complete control, read-out: Ragweed plant response rating (0 to 100 scale); for pest or weed control at 500 g/ha: 500 g ai/ha, 0 to 100 scale, 0 is no effect, 100 is complete control, read-out: Ragweed plant response rating. A digest of the protocol:
as §2

The subject of experiment [9] is wheat (Triticum aestivum). The experiment can be described thus: Test A postemergence. The settings on record: Triticum aestivum, post-emergence, 240 h, postemergence; for plant injury at 125 g/ha: 125 g ai/ha, visual injury vs untreated controls after approx. 10 d, 0 = no effect, 100 = complete control, read-out: Wheat plant response rating (0 to 100 scale); for plant injury at 500 g/ha: 500 g ai/ha, 0 to 100 scale, 0 is no effect, 100 is complete control, read-out: Wheat plant response rating. A digest of the protocol: as §2

Experiment [10] has as its system Galium (catchweed bedstraw, Galium aparine). The experiment can be described thus: Test A postemergence. The settings on record: Galium, post-emergence, 240 h, postemergence; for pest or weed control at 125 g/ha: 125 g ai/ha, visual injury vs untreated controls after approx. 10 d, 0 = no effect, 100 = complete control, read-out: Galium plant response rating (0 to 100 scale); for pest or weed control at 500 g/ha: 500 g ai/ha, 0 to 100 scale, 0 is no effect, 100 is complete control, read-out: Galium plant response rating. A digest of the protocol:
as §2

Experiment [11] deals with pigweed (Amaranthus retroflexus). The experiment can be described thus: Test A postemergence. The settings on record: Amaranthus retroflexus, post-emergence, 240 h, postemergence; for pest or weed control at 125 g/ha: 125 g ai/ha, visual injury vs untreated controls after approx. 10 d, 0 = no effect, 100 = complete control, read-out: Pigweed plant response rating (0 to 100 scale); for pest or weed control at 500 g/ha: 500 g ai/ha, 0 to 100 scale, 0 is no effect, 100 is complete control, read-out: Pigweed plant response rating. The method in brief: as §2

In experiment [12] the test system is giant foxtail (Setaria faberii). The experiment can be described thus: Test A postemergence. The settings on record: Setaria faberi, post-emergence, 240 h, postemergence; for pest or weed control at 125 g/ha: 125 g ai/ha, visual injury vs untreated controls after approx. 10 d, 0 = no effect, 100 = complete control, read-out: Foxtail, Giant plant response rating (0 to 100 scale); for pest or weed control at 500 g/ha: 500 g ai/ha, 0 to 100 scale, 0 is no effect, 100 is complete control, read-out: Foxtail, Giant plant response rating. The method in brief: as §2

[13] abbreviates: visual injury rating, approximately 10 d.

For `Cc1ccc([C@H]2CCN(C)C(=O)[C@@H]2C(=O)Nc2ccc(F)c(F)c2F)cc1` [Compound 1221], the pest or weed control at 250 g/ha came out at 85% in experiment [1], 100% in [2], 0% in experiment [3] and 0% in the experiment with rice (Oryra sativa). Further, the pest or weed control at 125 g/ha in [4] (setting [13]) is 0%; in [5], 30%; in [6], 60%; in experiment [7], 20%; in [8], 0%; in [10], 40%. Moreover, the values for the pest or weed control at 125 g/ha in experiment [11] and in experiment [12] were 0% and 90%, respectively. The pest or weed control at 500 g/ha in [4] was found to be 50%; in experiment [5], 60%; in [6] it was 70%; in [7], 70%; in [8], 20%; in experiment [10] it was 60%. Moreover, the values for the pest or weed control at 500 g/ha in experiment [11] and in experiment [12] were 0% and 90%, respectively. The plant injury at 125 g/ha in the experiment with corn (Zea mays) came to 0%; in [9], 20%. The plant injury at 500 g/ha (in the experiment on corn (Zea mays); in experiment [9]) was 60% throughout.
On to `CSc1ccccc1NC(=O)[C@H]1C(=O)N(C)CC[C@@H]1c1ccc(C)cc1` [Compound 1222], for which the pest or weed control at 250 g/ha in experiment [1] came to 0%; in [2], 65%; in [3], 70%; with rice (Oryra sativa) it was 15%. The pest or weed control at 125 g/ha in [4] (setting [13]), in experiment [5], in [6], in experiment [7], in [8] and in experiment [10] was 0% throughout. For the same compound, the figures for the pest or weed control at 125 g/ha in experiment [11] and in experiment [12] were 0% and 20%, respectively. For the same compound, the pest or weed control at 500 g/ha in [4], in experiment [5], in [6], in experiment [7], in experiment [8] and in experiment [10] was 0% throughout. Moreover, the pest or weed control at 500 g/ha turned out to be 0% in experiment [11] and 70% in experiment [12]. Further, the plant injury at 125 g/ha (in the experiment with corn (Zea mays); in [9]) was 0% each time. The plant injury at 500 g/ha (in the experiment with corn (Zea mays); in experiment [9]) was 0% in each case.
Take `O=C1NC[C@H](c2nccs2)[C@H]1C(=O)Nc1ccccc1F` [Compound 1181]: the pest or weed control at 250 g/ha amounted to 0% in [1], 35% in [2], 0% in [3] and 0% in the experiment with rice (Oryra sativa). Moreover, the pest or weed control at 125 g/ha in [4] (approx. 10 d), in [5], in experiment [6], in [7], in experiment [8] and in experiment [10] was 0% throughout. Also, the pest or weed control at 125 g/ha in experiment [11] and in [12] was 0% throughout. Moreover, the pest or weed control at 500 g/ha in experiment [4], in [5], in [6], in [7], in experiment [8] and in experiment [10] was 0% throughout. Moreover, the pest or weed control at 500 g/ha in experiment [11] and in [12] was 0% each time. Also, the plant injury at 125 g/ha (with corn (Zea mays); in [9]) was 0% throughout. Further, the plant injury at 500 g/ha (in the experiment on corn (Zea mays); in experiment [9]) was 0% throughout.
On to `Cc1nc([C@H]2CNC(=O)[C@@H]2C(=O)Nc2ccccc2F)cs1` [Compound 1179], for which the pest or weed control at 250 g/ha in experiment [1] was determined as 0%; in [2], 40%; in experiment [3], 0%; with rice (Oryra sativa), 0%. Further, the pest or weed control at 125 g/ha in [4] (approx. 10 d), in experiment [5], in [6], in experiment [7], in experiment [8] and in experiment [10] was 0% in each case. Besides, the pest or weed control at 125 g/ha in experiment [11] and in [12] was 0% each time. Besides, the pest or weed control at 500 g/ha in experiment [4], in [5], in experiment [6], in experiment [7], in experiment [8] and in experiment [10] was 0% throughout. For the same compound, the pest or weed control at 500 g/ha in experiment [11] and in experiment [12] was 0% throughout. In addition, the plant injury at 125 g/ha (with corn (Zea mays); in experiment [9]) was 0% throughout. Besides, the plant injury at 500 g/ha (in the experiment with corn (Zea mays); in experiment [9]) was 0% in each case.
